According to paper PMC7413254 (Nature Communications, 2020):

Target: T1, PfNT1 (Plasmodium falciparum, UniProt Q8IDM6)
T1 construct: expressed in transfected cells; host or cells: Xenopus laevis oocytes (stage V-VI), cRNA-injected
Experiment: [3H]CQ uptake into Xenopus oocytes (ion and membrane-potential dependence, Supplementary Fig. 2)
Assay type: cell-based

T1 sequence (Q8IDM6 whole entry): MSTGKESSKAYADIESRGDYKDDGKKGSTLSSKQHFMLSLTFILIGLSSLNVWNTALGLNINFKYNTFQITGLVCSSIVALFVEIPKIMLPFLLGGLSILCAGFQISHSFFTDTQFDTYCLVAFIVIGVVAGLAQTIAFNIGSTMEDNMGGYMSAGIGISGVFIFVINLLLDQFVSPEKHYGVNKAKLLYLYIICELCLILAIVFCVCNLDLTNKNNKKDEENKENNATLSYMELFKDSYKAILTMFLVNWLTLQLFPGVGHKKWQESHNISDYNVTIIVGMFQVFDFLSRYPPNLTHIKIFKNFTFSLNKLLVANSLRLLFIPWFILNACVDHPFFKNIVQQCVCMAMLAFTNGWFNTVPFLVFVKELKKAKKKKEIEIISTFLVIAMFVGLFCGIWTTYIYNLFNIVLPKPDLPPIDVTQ

`CCN(CC)CCCC(C)Nc1ccnc2cc(Cl)ccc12` (stereo not drawn) [CQ, chloroquine, reference compound] was tested, and the “[3H]CQ transport, PfNT1” value (0 mM Ca2+, Experiment 1) was 3.03 % PfCRTDd2 control, the “[3H]CQ transport, PfNT1” value (0 mM Ca2+, Experiment 2) was 3.55 % PfCRTDd2 control and the “[3H]CQ transport, PfNT1” value (0 mM Ca2+, Experiment 3) was 3.65 % PfCRTDd2 control. The “[3H]CQ transport, PfNT1” value (0 mM Ca2+, Experiment 4) was 3.28 % PfCRTDd2 control, the “[3H]CQ transport, PfNT1” value (0 mM Cl-, Experiment 1) was 3.68 % PfCRTDd2 control and the “[3H]CQ transport, PfNT1” value (0 mM Cl-, Experiment 2) was 3.72 % PfCRTDd2 control. The “[3H]CQ transport, PfNT1” value (0 mM Cl-, Experiment 3) was 4.16 % PfCRTDd2 control, the “[3H]CQ transport, PfNT1” value (0 mM Cl-, Experiment 4) was 3.75 % PfCRTDd2 control and the “[3H]CQ transport, PfNT1” value (0 mM Na+, Experiment 1) was 3.67 % PfCRTDd2 control. The “[3H]CQ transport, PfNT1” value (0 mM Na+, Experiment 2) was 3.32 % PfCRTDd2 control, the “[3H]CQ transport, PfNT1” value (0 mM Na+, Experiment 3) was 3.62 % PfCRTDd2 control and the “[3H]CQ transport, PfNT1” value (0 mM Na+, Experiment 4) was 3.15 % PfCRTDd2 control. The “[3H]CQ transport, PfNT1” value (1 mM Ca2+, Experiment 1) was 4.25 % PfCRTDd2 control, the “[3H]CQ transport, PfNT1” value (1 mM Ca2+, Experiment 2) was 3.56 % PfCRTDd2 control and the “[3H]CQ transport, PfNT1” value (1 mM Ca2+, Experiment 3) was 3.56 % PfCRTDd2 control. For the same molecule, the “[3H]CQ transport, PfNT1” value (1 mM Ca2+, Experiment 4) was 4.24 % PfCRTDd2 control, the “[3H]CQ transport, PfNT1” value (3 mM Ca2+, Experiment 1) was 3.29 % PfCRTDd2 control and the “[3H]CQ transport, PfNT1” value (3 mM Ca2+, Experiment 2) was 3.28 % PfCRTDd2 control. For the same molecule, the “[3H]CQ transport, PfNT1” value (3 mM Ca2+, Experiment 3) was 3.36 % PfCRTDd2 control, the “[3H]CQ transport, PfNT1” value (3 mM Ca2+, Experiment 4) was 3.62 % PfCRTDd2 control and the “[3H]CQ transport, PfNT1” value (5 mM Ca2+, Experiment 1) was 3.95 % PfCRTDd2 control. The “[3H]CQ transport, PfNT1” value (5 mM Ca2+, Experiment 2) was 3.75 % PfCRTDd2 control, the “[3H]CQ transport, PfNT1” value (5 mM Ca2+, Experiment 3) was 3.96 % PfCRTDd2 control and the “[3H]CQ transport, PfNT1” value (5 mM Ca2+, Experiment 4) was 3.37 % PfCRTDd2 control.
